Results taken from patent publication US6812245B2, “Polycylic xanthones and their use” (Instituto Biomar S.A., priority 2000, dated 2004).
Converted amounts (≈) assume the structure as drawn.

Assays:
Type in all cases: cell-based
mouse leukaemia P-388 = experiment: in vitro antitumour activity in cell cultures, mouse leukaemia P-388; conditions: P388; mouse leukaemia P-388 cell culture
Method: (§1) The antitumour activities of IB-00208 have been determined in vitro in cell cultures of mouse leukaemia P-388, human lung carcinoma A-549, human colon carcinoma HT-29 and human melanoma MEL-28. The procedure was carried out using the methodology described by Bergeron et al. The IC50 found was of 0.001, 0.001, 0.001, and 0.001 μg/ml for all 4 cell lines.

human melanoma MEL-28 = experiment: in vitro antitumour activity in cell cultures, human melanoma MEL-28; conditions: SK-MEL-28; human melanoma MEL-28 cell culture
Method: as §1

[1] = system: human lung carcinoma A-549; experiment: in vitro antitumour activity in cell cultures, human lung carcinoma A-549; conditions: A549; human lung carcinoma A-549 cell culture
Method: as §1

[2] = system: human colon carcinoma HT-29; experiment: in vitro antitumour activity in cell cultures, human colon carcinoma HT-29; conditions: human colon carcinoma HT-29 cell culture
Method: as §1

IC50 (mouse leukaemia P-388): 1 ng/mL (≈ 1.45 nM)
IC50 (human melanoma MEL-28): 1 ng/mL (≈ 1.45 nM)
IC50 [1]: 1 ng/mL (≈ 1.45 nM)
IC50 [2]: 1 ng/mL (≈ 1.45 nM)
Structure (SMILES): COc1ccc(OC)c2c(=O)c3c(oc12)C(=O)c1ccc2c(OC4OC(C)C(OC)C(OC)C4OC)c4c(c(O)c2c1C3=O)C(=O)OC(C)C4 (stereo not shown) [IB-00208]
